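Interpolation was linear, between the two tested concentrations surrounding the appropriate level; five concentrations were tested over 48 hours in 96-well plates. At the GI50, growth is halved.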 Activity calls are given as the source filed them. No stated cut-off is given here; in the data, active = GI50 up to about 1.1 µM and inactive = higher.
Experiments:
Assay in all cases: NCI-60 cell line screen, 48 h
[1] = system: EKVX
[2] = system: MDA-MB-435
[3] = system: SNB-19
[4] = system: NCI-H460
[5] = system: K562
[6] = system: T47D
[7] = system: BT-549
[8] = system: A498
[9] = system: SN12C
[10] = system: SW-620
[11] = system: SK-MEL-2
[12] = system: HT-29
[13] = system: SK-OV-3
[14] = system: CAKI-1
[15] = system: OVCAR-3
[16] = system: HOP-62
[17] = system: RPMI-8226
[18] = system: CCRF-CEM
[19] = system: HL-60

Measured: GI50

O=C(CON1C(=O)c2ccccc2C1=O)c1ccccc1
inactive: [1] > 100 µM | [2] 42 µM | [3] > 100 µM | [4] > 100 µM | [5] 45.9 µM | [6] 22.3 µM | [7] > 100 µM | [8] > 100 µM | [9] 47.1 µM | [10] 24.3 µM | [11] > 100 µM | [12] 48.3 µM | [13] > 100 µM | [14] 19.1 µM | [15] 49.9 µM | [16] > 100 µM | [17] 18.6 µM

COc1ccc2c(c1)-c1[nH]c3ccccc3c1CC2
inactive: [1] 10.1 µM | [2] 16.6 µM | [3] 15.7 µM | [4] 15.6 µM | [5] 21.6 µM | [6] 13.5 µM | [7] 17.2 µM | [18] 18 µM | [9] 14.4 µM | [10] 16.8 µM | [11] 15.5 µM | [12] 11 µM | [13] 18.1 µM | [14] 15.4 µM | [15] 18.2 µM | [16] 16.8 µM | [17] 20.4 µM

C#CCCCCC#Cc1ccccc1C(=O)C=[N+]=[N-]
inactive: [1] > 100 µM | [2] > 100 µM | [3] > 100 µM | [4] > 100 µM | [5] 39.8 µM | [6] > 100 µM | [7] > 100 µM | [8] > 100 µM | [9] > 100 µM | [10] > 100 µM | [11] > 100 µM | [12] > 100 µM | [13] > 100 µM | [14] > 100 µM | [16] > 100 µM | [17] 16.5 µM

CCOC(=O)c1ccc(-c2onc(C)c2Br)[nH]1
inactive: [1] 37 µM | [2] 85.1 µM | [3] 66.1 µM | [4] > 100 µM | [5] 80.2 µM | [6] 30 µM | [7] 34.7 µM | [8] 49.9 µM | [10] 60 µM | [11] 76 µM | [12] 39.5 µM | [13] 76.6 µM | [14] 50.8 µM | [15] 30.4 µM | [16] 59.3 µM | [17] 86.7 µM

COc1ccc(/C=C/C(=O)NCC(NC(=O)/C=C/c2ccc(OC)c(OC)c2)C(=O)O)cc1OC (centres undefined)
inactive: [1] > 100 µM | [2] > 100 µM | [3] > 100 µM | [4] > 100 µM | [5] > 100 µM | [6] > 100 µM | [7] > 100 µM | [18] > 100 µM | [8] > 100 µM | [9] > 100 µM | [10] > 100 µM | [11] > 100 µM | [12] > 100 µM | [13] > 100 µM | [14] > 100 µM | [15] > 100 µM | [16] > 100 µM | [17] > 100 µM

CC(C(=O)NCNC(=O)c1ccccc1)C(=O)Nc1ccccc1 (centres undefined)
inactive: [1] > 100 µM | [2] > 100 µM | [3] > 100 µM | [4] > 100 µM | [6] > 100 µM | [7] > 100 µM | [18] > 100 µM | [9] > 100 µM | [10] > 100 µM | [19] > 100 µM | [11] > 100 µM | [12] > 100 µM | [13] > 100 µM | [14] > 100 µM | [17] > 100 µM

Reference: ChEMBL document CHEMBL1201862, “PubChem BioAssay data set” (2004)
